Results as given in article PMC8466238, “Development of High Affinity Calcitonin Analog Fragments Targeting Extracellular Domains of Calcitonin Family Receptors” (Biomolecules, 2021).
Like-named read-outs stand apart in the source and are kept apart here. Where a SMILES comes first, the peptide text is derived from it. Where no end group is shown, it is not given here. [ ]: non-standard residue; d: D form. The star is where a group is joined. FITC = O=C1OC2(c3ccc(O)cc3Oc3cc(O)ccc32)c2ccc(NC(=S)*)cc21; Hyp = O=C(O)[C@@H]1C[C@@H](O)CN1; Ahx = NCCCCCC(=O)O

Legend:
[1] = biological target: T1, AMY receptor 2 ECD (RAMP2-CTR ECD fusion protein) (Homo sapiens, UniProt O60895+P30988); assay: FP competition peptide binding assay with AMY receptor 2 ECD, FITC-AC413(6–25) Y25P probe; details: Figure 5f; RAMP2-CTR ECD fusion protein 67 nM, FITC-AC413(6–25) Y25P 10 nM; mean ± SD of N = 3; read-out: pKI Mean ± SD (converted)
T1 construct: pHLsec/hRAMP2.55–140-(GSA)3-hCTR.34–141-H6 (H-pSL006); H6 (His6) (C); made in house; host or cells: HEK293T
Description: (§1) The overall procedures of FP peptide binding assay with receptor ECDs and FITC-labeled peptide probes were previously described. […] A SpectraiD5 (Molecular Devices, San Jose, CA, USA) was used to measure fluorescence polarization/anisotropy. Background (reaction buffer only) was subtracted for anisotropy calculation. For the SpectraiD5, G factor (0.38 for FITC-sCT(22–32) and 0.41 for FITC-AC413(6–25) and FITC-AC413(6–25) Y25P) was used to correct the instrumental bias for anisotropy calculation. The polarization (mP) of the FITC-peptide probes only (No receptor ECD) was set close to 50 mP. For the saturation binding assay, the anisotropy values were re-calculated when total fluorescence intensity was changed by more than 10% as previously described. […] Anisotropy values were used to produce non-linear regression curves with PRISM 5.0 (GraphPad software, San Diego, CA, USA) as previously described. KI indicates affinity values obtained from competition binding assay and it was calculated from the non-linear regression curves of anisotropy by using equations previously described. Concentrations of the FITC-labeled peptide and the total receptor protein and the affinity of the FITC-labeled peptide for the receptor protein were incorporated into the equations for the KI calculation of the competitive peptide ligand. Two technical replicates were used for each receptor concentration in the peptide-binding curve. SEM of the anisotropy values of the two replicates at each receptor concentration were presented as error bars in the representative peptide-binding curves. When the error bars were shorter than the height of the symbol, they were omitted in the representative curves. At least three independent peptide binding experiments were performed to obtain three independent peptide-binding curves. Mean and standard deviation of peptide ligand affinity were calculated from them.

[2] = biological target: T2, AMY receptor 1 ECD (RAMP1-CTR ECD fusion protein) (Homo sapiens, UniProt O60894+P30988); assay: FP competition peptide binding assay with AMY receptor 1 ECD, FITC-AC413(6–25) Y25P probe; details: Figure 5e; RAMP1-CTR ECD fusion protein 77 nM, FITC-AC413(6–25) Y25P 10 nM; mean ± SD of N = 3; read-out: pKI Mean ± SD (converted)
T2 construct: pHLsec/hRAMP1.24–111-(GSA)3-hCTR.34–141-H6 (H-pSL005); H6 (His6) (C); made in house; host or cells: HEK293T
Description: as §1

[3] = biological target: T3, AMY receptor 3 ECD (RAMP3-CTR ECD fusion protein) (Homo sapiens, UniProt O60896+P30988); assay: FP competition peptide binding assay with AMY receptor 3 ECD, FITC-AC413(6–25) Y25P probe; details: Figure 5g; RAMP3-CTR ECD fusion protein 252 nM, FITC-AC413(6–25) Y25P 10 nM; mean ± SD of N = 3; read-out: pKI Mean ± SD (converted)
T3 construct: pHLsec/hRAMP3.25–112-(GSA)3-hCTR.34–141-H6 (H-pSL001); H6 (His6) (C); made in house; host or cells: HEK293S GnTI−
T3 sequence (O60896+P30988 with tags, fused parts or gaps): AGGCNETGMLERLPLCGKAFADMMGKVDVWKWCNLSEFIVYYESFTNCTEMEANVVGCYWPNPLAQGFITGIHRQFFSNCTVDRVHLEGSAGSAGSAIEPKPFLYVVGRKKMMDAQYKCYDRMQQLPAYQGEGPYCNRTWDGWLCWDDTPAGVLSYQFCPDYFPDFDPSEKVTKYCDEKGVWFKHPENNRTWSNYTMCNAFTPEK
Description: as §1

CTR ECD = biological target: T4, CTR ECD (Homo sapiens, UniProt P30988); assay: FP competition peptide binding assay with purified CTR ECD, FITC-sCT(22–32) probe; details: CTR ECD 500 nM, FITC-sCT(22–32) 10 nM
T4 construct: pHLsec/hCTR.34–141-H6 (H-pSL003); H6 (His6) (C); made in house; host or cells: HEK293T
T4 sequence (P30988 34-141): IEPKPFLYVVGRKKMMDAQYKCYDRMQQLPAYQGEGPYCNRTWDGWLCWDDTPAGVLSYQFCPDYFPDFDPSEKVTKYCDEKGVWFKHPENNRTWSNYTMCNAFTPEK
Description: as §1

[4] = test system: RAMP3-CTR ECD fusion protein; assay: FP peptide binding assay of FITC-labeled probes with CTR ECD alone and RAMP3-CTR ECD fusion protein (Figure S1D); parameters: species or system human; details: FP binding with rising receptor ECD concentration
Experimental: HEK293S GnTI^− cells were used to express the RAMP3-CTR ECD fusion protein. The general procedures of receptor ECD expression and purification from HEK293S GnTI^− cells were previously described. HEK293S GnTI^− cells were transiently transfected with the DNA expression vector (H-pSL001) using polyethylenimine (PEI) at 1:1.5 ratio (DNA:PEI, w/w). Transfected cells were incubated for 4 days at 37 °C. All protein purification was performed at 4 °C unless otherwise noted. Cell culture media were collected and dialyzed to dialysis buffer overnight. The next day, dialyzed cell culture media were loaded to IMAC chromatography. Peak fractions from IMAC chromatography were spin-concentrated (MWCO 10 kDa) and injected into SEC. […]
The overall procedures of FP peptide binding assay with receptor ECDs and FITC-labeled peptide probes were previously described. […] A SpectraiD5 (Molecular Devices, San Jose, CA, USA) was used to measure fluorescence polarization/anisotropy. […] For the saturation binding assay, the anisotropy values were re-calculated when total fluorescence intensity was changed by more than 10% as previously described. However, effects of fluorescence intensity changes on the affinity values (KI) obtained from the competition binding assay was reported to be minimum and re-calculation of anisotropy was not applied. […] Mean and standard deviation of peptide ligand affinity were calculated from them. […]

[5] = biological target: T5, FITC-labeled AC413(6–25) with Y25P mutation (Y25P (stands in the printed letters), FITC-(Ahx) (aminohexanoic acid) on the N-terminus; C-terminal amide); assay: fluorescence polarisation; saturation binding: FITC-labeled peptide probe (10 nM) with rising receptor ECD concentrations; receptor ECD concentration at half of the maximal anisotropy; details: both partners purified
T5 construct: residues 6-25 of AC413, an antagonistic amylin peptide analog, with Y25P; peptide probe of the FP assay with the AMY receptor ECDs; also called FITC-AC413(6–25) Y25P; source: synthetic peptide (Genscript, HPLC-purified)
T5 peptide: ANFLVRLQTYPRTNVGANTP

[6] = Figure 4b experiment set, mean ± SD of N = 3 (N = 4 for sCT(22–32)) independent experiments, read-out: pKI Mean ± SD (converted)
[7] = Figure 1d experiment set, mean ± SD of N = 3 independent experiments, pKI = –log10[KI] (M)

Molecule | Ki [1] [nM] | Ki [2] [nM] | Ki [3] [nM] | Ki (CTR ECD; [6]) [M] | receptor ECD concentration that produced a half of the maximal anisotropy with the peptide probe [5] [nM] | further results
C[C@@H](O)[C@H](NC(=O)[C@H](CC(=O)O)NC(=O)[C@@H](NC(=O)[C@H](CCCNC(=N)N)NC(=O)[C@@H]1CCCN1C(=O)[C@@H](N)Cc1ccc(O)cc1)[C@@H](C)O)C(=O)NCC(=O)N1CCC[C@H]1C(=O)NCC(=O)N[C@H](C(=O)N1C[C@H](O)C[C@H]1C(N)=O)[C@@H](C)O [sCT(22–32) N26D/S29P/P32HYP] (H-YPRTDTGPGT[Hyp]-NH2) | 339 | 123 | 117 | 9.55e-08 | – | –
C[C@@H](O)[C@H](NC(=O)[C@H](CC(N)=O)NC(=O)[C@@H](NC(=O)[C@H](CCCNC(=N)N)NC(=O)[C@@H]1CCCN1C(=O)[C@@H](N)Cc1ccc(O)cc1)[C@@H](C)O)C(=O)NCC(=O)N[C@@H](CO)C(=O)NCC(=O)N[C@H](C(=O)N1C[C@H](O)C[C@H]1C(N)=O)[C@@H](C)O [sCT(22–32) P32HYP] (H-YPRTNTGSGT[Hyp]-NH2) | 1410 | 891 | 1000 | 8.91e-07 | – | –
YPRTDTGPGTP-NH2 [sCT(22–32) N26D/S29P] | 468 | 380 | 331 | – | – | Ki (CTR ECD; Figure 3b experiment set, mean ± SD of N = 3 independent experiments, read-out: pKI Mean ± SD (converted)): 2.4e-07 M; Ki (CTR ECD; [7]): 3.16e-07 M
YPRTNTGSGTP-NH2 [sCT(22–32), reference compound] | 2820 | 2570 | 2570 | 2.04e-06 | – | Ki (CTR ECD; [7]): 1.78e-06 M
{FITC-Ahx}-ANFLVRLQTYPRTNVGANTP-NH2 [FITC-AC413(6–25) Y25P, FITC-labeled AC413(6–25) with Y25P mutation, probe for AMY receptor ECDs] | – | – | – | – | – | affinity for the RAMP3-CTR ECD fusion protein compared to FITC-labeled AC413(6–25) [4]: great affinity increase
{FITC-Ahx}-ANFLVRLQTYPRTNVGANTY-NH2 [FITC-AC413(6–25), FITC-labeled fragment of the antagonistic amylin analog AC413, peptide probe] | – | – | – | – | – | binding for the RAMP3-CTR ECD fusion protein over CTR ECD alone [4]: selective binding
RAMP2-CTR ECD fusion protein (hRAMP2.55–140-(GSA)3-hCTR.34–141-H6) (receptor, human, human receptor activity-modifying protein 2 (RAMP2), extracellular domain, residues 55-140; linker, printed as (GSA)3; human calcitonin receptor (CTR), extracellular domain, residues 34-141; Secreted from a pHLsec-based vector; also called AMY receptor 2 ECD; RAMP2 ECD-CTR ECD fusion; source: HEK293T, transiently transfected, secreted to cell culture media, purified (IMAC, SEC)) GGTVKNYETAVQFCWNHYKDQMDPIEKDWCDWAMISRPYSTLRDCLEHFAELFDLGFPNPLAERIIFETHQIHFANCSLVQPTFSDGSAGSAGSAIEPKPFLYVVGRKKMMDAQYKCYDRMQQLPAYQGEGPYCNRTWDGWLCWDDTPAGVLSYQFCPDYFPDFDPSEKVTKYCDEKGVWFKHPENNRTWSNYTMCNAFTPEK | – | – | – | – | 67 | –
RAMP3-CTR ECD fusion protein (hRAMP3.25–112-(GSA)3-hCTR.34–141-H6) (receptor, human, human receptor activity-modifying protein 3 (RAMP3), extracellular domain, residues 25-112; linker, printed as (GSA)3; human calcitonin receptor (CTR), extracellular domain, residues 34-141; Secreted from a pHLsec-based vector; also called AMY receptor 3 ECD; RAMP3 ECD-CTR ECD fusion protein; source: HEK293S GnTI-, transiently transfected (PEI), secreted to cell culture media, purified (IMAC, SEC)) AGGCNETGMLERLPLCGKAFADMMGKVDVWKWCNLSEFIVYYESFTNCTEMEANVVGCYWPNPLAQGFITGIHRQFFSNCTVDRVHLEGSAGSAGSAIEPKPFLYVVGRKKMMDAQYKCYDRMQQLPAYQGEGPYCNRTWDGWLCWDDTPAGVLSYQFCPDYFPDFDPSEKVTKYCDEKGVWFKHPENNRTWSNYTMCNAFTPEK | – | – | – | – | 252 | –
RAMP1-CTR ECD fusion protein (hRAMP1.24–111-(GSA)3-hCTR.34–141-H6) (receptor, human, human receptor activity-modifying protein 1 (RAMP1), extracellular domain, residues 24-111; linker, printed as (GSA)3; human calcitonin receptor (CTR), extracellular domain, residues 34-141; Secreted from a pHLsec-based vector; also called AMY receptor 1 ECD; RAMP1 ECD-CTR ECD fusion; source: HEK293T, transiently transfected, secreted to cell culture media, purified (IMAC, SEC)) TTACQEANYGALLRELCLTQFQVDMEAVGETLWCDWGRTIRSYRELADCTWHMAEKLGCFWPNAEVDRFFLAVHGRYFRSCPISGRAVGSAGSAGSAIEPKPFLYVVGRKKMMDAQYKCYDRMQQLPAYQGEGPYCNRTWDGWLCWDDTPAGVLSYQFCPDYFPDFDPSEKVTKYCDEKGVWFKHPENNRTWSNYTMCNAFTPEK | – | – | – | – | 77 | –
